This note sets out measurements from patent publication US8354422B2, “Pyrimidine inhibitors of kinase activity” (Abbott Laboratories Inc., priority 2009, dated 2013).

The experiment deals with T1, C-terminal GST-tagged, recombinant, human IGF-1R, amino acids 954-1367 (Homo sapiens, UniProt P08069).
T1 construct: human IGF-1R, amino acids 954-1367 expressed by baculovirus in Sf21 cells; GST (C); purchased Cell Signaling Technology; host or cells: baculovirus in Sf21 cells
T1 sequence (P08069 954-1367): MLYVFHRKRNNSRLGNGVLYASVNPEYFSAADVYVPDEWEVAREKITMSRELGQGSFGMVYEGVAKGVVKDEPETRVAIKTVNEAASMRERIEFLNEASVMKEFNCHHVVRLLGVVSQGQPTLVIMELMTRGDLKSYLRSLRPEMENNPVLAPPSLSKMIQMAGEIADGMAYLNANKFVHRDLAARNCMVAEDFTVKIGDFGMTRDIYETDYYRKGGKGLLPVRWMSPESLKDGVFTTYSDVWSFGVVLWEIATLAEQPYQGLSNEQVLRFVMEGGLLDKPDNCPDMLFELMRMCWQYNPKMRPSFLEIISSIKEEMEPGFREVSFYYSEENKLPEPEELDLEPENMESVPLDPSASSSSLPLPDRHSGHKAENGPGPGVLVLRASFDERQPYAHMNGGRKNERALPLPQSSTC
Description: IGF-1R kinase activity, homogenous time-resolved fluorescence (HTRF) in vitro kinase assay. In kind it is biochemical. Particulars: IGF-1R kinase HTRF assay, ATP 50 μM, biotinylated peptide substrate 0.5 μM, 60 minutes at room temperature. The protocol: IGF-1R kinase activity was assayed by a homogenous time-resolved fluorescence (HTRF) in vitro kinase assay (Mathis, G., HTRF(R) Technology. J Biomol Screen, 1999. 4(6): p. 309-314). Specifically, 10 μL C-terminal GST-tagged, recombinant, human IGF-1R, amino acids 954-1367 expressed by baculovirus in Sf21 cells (Cell Singaling Technology) was mixed with 10 μL inhibitor (various concentrations, 2% final DMSO) and 10 μL of ATP (50 μM final concentration) in reaction buffer (50 mM HEPES, pH […], 2 mM MnCl2, 0.1% BSA and 1 mM DTT, 40 μL final volume). The reaction was initiated by addition of 10 μL of biotinylated peptide substrate (Biotin-Ahx-[…], 0.5 μM final concentration) in a black 384-well plate (Packard). After 60 minutes incubation at room temperature, the reaction was quenched by addition of 60 μL stop/revelation buffer to give 30 mM EDTA, 1 μg/mL streptavidin-APC (Prozyme), 50 ng/mL anti-phosphotyrosine mAb PT66-K Europium Cryptate, 30 mM HEPES, pH 7.5, 120 mM KF, 0.005% Tween-20, 0.05% BSA). The quenched reaction was allowed to stand at room temperature for 1 hour and then read in a time-resolved fluorescence detector (Envision, Perkin Elmer) at 615 nm and 665 nm simultaneously. The ratio between the signal of 615 nm and 665 nm was used in the calculation of the IC50.
With `Fc1ccc(Nc2nccc(-c3c(-c4ccc(OCc5ccccc5)cc4)nc4ccccn34)n2)c(F)c1` [Example 29, 4-{2-[4-(benzyloxy)phenyl]imidazo[1,2-a]pyridin-3-yl}-N-(2,4-difluorophenyl)pyrimidin-2-amine], the IC50 is more than 1000 nM.

As to `COc1cc(-c2nc3ccccn3c2-c2ccnc(Nc3cccc(OCCN4CCCC4)c3)n2)ccc1OCc1ccccc1` [Example 30, 4-{2-[4-(benzyloxy)-3-methoxyphenyl]imidazo[1,2-a]pyridin-3-yl}-N-[3-(2-pyrrolidin-1-ylethoxy)phenyl]pyrimidin-2-amine], the IC50 was less than 25 nM.

Turning to `CCN(CCO)c1cccc(Nc2nccc(-c3c(-c4ccc(OCc5ccccc5)c(OC)c4)nc4ccccn34)n2)c1` [Example 31, 2-[{3-[(4-{2-[4-(benzyloxy)-3-methoxyphenyl]imidazo[1,2-a]pyridin-3-yl}pyrimidin-2-yl)amino]phenyl}(ethyl)amino]ethanol], the IC50 was in the range of 101 to 500 nM.

As to `COc1cc(-c2nc3ccccn3c2-c2ccnc(Nc3ccc(N4CCS(=O)(=O)CC4)cc3)n2)ccc1OCc1ccccc1` [Example 32, 4-{2-[4-(benzyloxy)-3-methoxyphenyl]imidazo[1,2-a]pyridin-3-yl}-N-[4-(1,1-dioxidothiomorpholin-4-yl)phenyl]pyrimidin-2-amine], the IC50 lay in the range of 101 to 500 nM.

Take `COc1cc(N2CCC(N(C)C)CC2)ccc1Nc1nccc(-c2c(-c3ccc(OCc4ccccc4)c(OC)c3)nc3ccccn23)n1` [Example 33, 4-{2-[4-(benzyloxy)-3-methoxyphenyl]imidazo[1,2-a]pyridin-3-yl}-N-{4-[4-(dimethylamino)piperidin-1-yl]-2-methoxyphenyl}pyrimidin-2-amine]: the IC50 fell in the range of 25 to 100 nM.

Consider `COc1ccc(S(C)(=O)=O)cc1Nc1nccc(-c2c(-c3ccc(OCc4ccccc4)c(OC)c3)nc3ccccn23)n1` [Example 34, 4-{2-[4-(benzyloxy)-3-methoxyphenyl]imidazo[1,2-a]pyridin-3-yl}-N-[2-methoxy-5-(methylsulfonyl)phenyl]pyrimidin-2-amine], for which the IC50 is 25 to 100 nM.

Take `COc1ccc(S(C)(=O)=O)cc1Nc1nccc(-c2c(-c3ccc(OCc4ccccc4)cc3)nc3ccccn23)n1` [Example 35, 4-{2-[4-(benzyloxy)phenyl]imidazo[1,2-a]pyridin-3-yl}-N-[2-methoxy-5-(methylsulfonyl)phenyl]pyrimidin-2-amine]: the IC50 was 101 to 500 nM.

Take `COc1cc(-c2nc3ccccn3c2-c2ccnc(Nc3ccc(N4CCC(N(C)C)CC4)cc3)n2)ccc1OCc1ccccc1` [Example 36, 4-{2-[4-(benzyloxy)-3-methoxyphenyl]imidazo[1,2-a]pyridin-3-yl}-N-{4-[4-(dimethylamino)piperidin-1-yl]phenyl}pyrimidin-2-amine]: the half-inhibitory concentration (IC50) was less than 25 nM.

For the compound `COc1cc(-c2nc3ccccn3c2-c2ccnc(Nc3cnn(CCN4CCCC4)c3)n2)ccc1OCc1ccccc1` [Example 37, 4-{2-[4-(benzyloxy)-3-methoxyphenyl]imidazo[1,2-a]pyridin-3-yl}-N-[1-(2-pyrrolidin-1-ylethyl)-1H-pyrazol-4-yl]pyrimidin-2-amine], the IC50 lay within 101 to 500 nM.

Take `COc1cc(-c2nc3ccccn3c2-c2ccnc(Nc3cccc(CCN(C)CCO)c3)n2)ccc1OCc1ccccc1` [Example 38, 2-[(2-{3-[(4-{2-[4-(benzyloxy)-3-methoxyphenyl]imidazo[1,2-a]pyridin-3-yl}pyrimidin-2-yl)amino]phenyl}ethyl)(methyl)amino]ethanol]: the IC50 fell in the range of 25 to 100 nM.

As to `COc1cc(N2CCOCC2)ccc1Nc1nccc(-c2c(-c3ccc(OCc4ccccc4)c(OC)c3)nc3ccccn23)n1` [Example 39, 4-{2-[4-(benzyloxy)-3-methoxyphenyl]imidazo[1,2-a]pyridin-3-yl}-N-(2-methoxy-4-morpholin-4-ylphenyl)pyrimidin-2-amine], the IC50 was in the range of 101 to 500 nM.

As for `COc1ccc(C(F)(F)F)cc1Nc1nccc(-c2c(-c3ccc(OCc4ccccc4)c(OC)c3)nc3ccccn23)n1` [Example 40, 4-{2-[4-(benzyloxy)-3-methoxyphenyl]imidazo[1,2-a]pyridin-3-yl}-N-[2-methoxy-5-(trifluoromethyl)phenyl]pyrimidin-2-amine], the IC50 is more than 1000 nM.

Consider `COc1ccc(C(F)(F)F)cc1Nc1nccc(-c2c(-c3ccc(OCc4ccccc4)cc3)nc3ccccn23)n1` [Example 41, 4-{2-[4-(benzyloxy)phenyl]imidazo[1,2-a]pyridin-3-yl}-N-[2-methoxy-5-(trifluoromethyl)phenyl]pyrimidin-2-amine], for which the concentration for half-maximal inhibition (IC50) is more than 1000 nM.

Turning to `COc1cc(N(C)C)ccc1Nc1nccc(-c2c(-c3ccc(OCc4ccccc4)c(OC)c3)nc3ccccn23)n1` [Example 42, N^1-(4-{2-[4-(benzyloxy)-3-methoxyphenyl]imidazo[1,2-a]pyridin-3-yl}pyrimidin-2-yl)-2-methoxy-N^4,N^4-dimethylbenzene-1,4-diamine], the IC50 lay in the range of 101 to 500 nM.

`COc1cc(-c2nc3ccccn3c2-c2ccnc(Nc3cnn(CCN(C)C)c3)n2)ccc1OCc1ccccc1` [Example 43, 4-{2-[4-(benzyloxy)-3-methoxyphenyl]imidazo[1,2-a]pyridin-3-yl}-N-{1-[2-(dimethylamino)ethyl]-1H-pyrazol-4-yl}pyrimidin-2-amine]: the IC50 was 101 to 500 nM.

As for `COc1cc(-c2nc3ccccn3c2-c2ccnc(Nc3ccc(N4CCN(CCO)CC4)cc3)n2)ccc1OCc1ccccc1` [Example 44, 2-(4-{4-[(4-{2-[4-(benzyloxy)-3-methoxyphenyl]imidazo[1,2-a]pyridin-3-yl}pyrimidin-2-yl)amino]phenyl}piperazin-1-yl)ethanol], the concentration for half-maximal inhibition (IC50) was 25 to 100 nM.

`COc1cc(NCC(C)(C)O)ccc1Nc1nccc(-c2c(-c3ccc(OCc4ccccc4)c(OC)c3)nc3ccccn23)n1` [Example 45, 1-({4-[(4-{2-[4-(benzyloxy)-3-methoxyphenyl]imidazo[1,2-a]pyridin-3-yl}pyrimidin-2-yl)amino]-3-methoxyphenyl}amino)-2-methylpropan-2-ol]: the half-inhibitory concentration (IC50) was 101 to 500 nM.

For `COc1cc(N)ccc1Nc1nccc(-c2c(-c3ccc(OCc4ccccc4)c(OC)c3)nc3ccccn23)n1` [Example 46, N^1-(4-{2-[4-(benzyloxy)-3-methoxyphenyl]imidazo[1,2-a]pyridin-3-yl}pyrimidin-2-yl)-2-methoxybenzene-1,4-diamine], the IC50 was 25 to 100 nM.

Regarding `COc1cc(-c2nc3ccccn3c2-c2ccnc(Nc3cnn(CCO)c3)n2)ccc1OCc1ccccc1` [Example 47, 2-{4-[(4-{2-[4-(benzyloxy)-3-methoxyphenyl]imidazo[1,2-a]pyridin-3-yl}pyrimidin-2-yl)amino]-1H-pyrazol-1-yl}ethanol], the IC50 fell in the range of 25 to 100 nM.

Consider `COc1cc(N(C)CCO)ccc1Nc1nccc(-c2c(-c3ccc(OCc4ccccc4)c(OC)c3)nc3ccccn23)n1` [Example 48, 2-[{4-[(4-{2-[4-(benzyloxy)-3-methoxyphenyl]imidazo[1,2-a]pyridin-3-yl}pyrimidin-2-yl)amino]-3-methoxyphenyl}(methyl)amino]ethanol], for which the IC50 is 101 to 500 nM.

For `CN(C)CCc1cccc(Nc2nccc(-c3c(-c4ccc(OCc5ccccc5)c(C(F)(F)F)c4)nc4ccccn34)n2)c1` [Example 49, 4-{2-[4-(benzyloxy)-3-(trifluoromethyl)phenyl]imidazo[1,2-a]pyridin-3-yl}-N-{3-[2-(dimethylamino)ethyl]phenyl}pyrimidin-2-amine], the IC50 is more than 1000 nM.

As for `CCc1cc(-c2nc3ccccn3c2-c2ccnc(Nc3cccc(CCN(C)C)c3)n2)ccc1OCc1ccccc1` [Example 50, 4-{2-[4-(benzyloxy)-3-ethylphenyl]imidazo[1,2-a]pyridin-3-yl}-N-{3-[2-(dimethylamino)ethyl]phenyl}pyrimidin-2-amine], the IC50 was more than 1000 nM.

As for `COc1cc(N2CCSCC2)ccc1Nc1nccc(-c2c(-c3ccc(OCc4ccccc4)c(OC)c3)nc3ccccn23)n1` [Example 51, 4-{2-[4-(benzyloxy)-3-methoxyphenyl]imidazo[1,2-a]pyridin-3-yl}-N-(2-methoxy-4-thiomorpholin-4-ylphenyl)pyrimidin-2-amine], the IC50 lay in the range of 501 to 1000 nM.

Turning to `COc1ccc(N2CCOCC2)cc1Nc1nccc(-c2c(-c3ccc(OCc4ccccc4)c(OC)c3)nc3ccccn23)n1` [Example 52, 4-{2-[4-(benzyloxy)-3-methoxyphenyl]imidazo[1,2-a]pyridin-3-yl}-N-(2-methoxy-5-morpholin-4-ylphenyl)pyrimidin-2-amine], the IC50 lay in the range of 101 to 500 nM.

`COc1cc(NCC(=O)O)ccc1Nc1nccc(-c2c(-c3ccc(OCc4ccccc4)c(OC)c3)nc3ccccn23)n1` [Example 53, N-{4-[(4-{2-[4-(benzyloxy)-3-methoxyphenyl]imidazo[1,2-a]pyridin-3-yl}pyrimidin-2-yl)amino]-3-methoxyphenyl}glycine]: the 50% inhibitory concentration (IC50) lay within 101 to 500 nM.

As for `COc1cc(-c2nc3ccccn3c2-c2ccnc(Nc3cnn(CCN4CCCCC4)c3)n2)ccc1OCc1ccccc1` [Example 54, 4-{2-[4-(benzyloxy)-3-methoxyphenyl]imidazo[1,2-a]pyridin-3-yl}-N-[1-(2-piperidin-1-ylethyl)-1H-pyrazol-4-yl]pyrimidin-2-amine], the IC50 lay within 101 to 500 nM.
